# Experimental data reported in patent publication US20220347171A1, “TREATMENT OF PRURIGO NODULARIS” (TREVI THERAPEUTICS, INC., priority 2016, published 2022).
# Counter-ions that a name gives are not always drawn.
# System: prurigo nodularis patients
# Assay: Example 2 trial: ItchyQoL total score
# Type: in vivo, human
# Settings: for Mean (SD) decrease in ItchyQoL total score from baseline to Week 10: placebo −5.45 (10.91)
# Procedure: This clinical study was a double-blind, placebo-controlled trial in which prurigo nodularis patients were randomized in a 1:1:1 ratio to nalbuphine ER tablets to a target dose of 90 mg twice daily (BID), nalbuphine HCl ER tablets 180 mg BID, or placebo tablets BID. Use of nonsedating rescue antihistamine medications (non-first generation H1-antihistamines [Simons F E. Advances in H1-antihistamines. N Engl J Med. 2004; 351(21):2203-17.]) were allowed in the study but their use was recorded. Cleansing emollients were allowed for hygiene purposes provided there were no active substances (such as menthol or urea) contained in the lotion. A placebo comparator was chosen because there are no approved treatments for prurigo nodularis in the United States or Europe or an established standard of care that could serve as an active control.
# Quality of life-related secondary endpoints included change from Day 1 to the Evaluation Period in itching-related quality of life (using the Itchy QoL) and itching-related sleep disruption (using the MOS Sleep Scale-R). The Hospital Anxiety and Depression Score (HADS) used as a general measure of anxiety and depression.
# Efficacy analysis of secondary continuous endpoints was performed using a mixed model repeated ANCOVA with the main effects of treatment and site, including the baseline value for each endpoint as the covariate. The model included time (i.e. Visit) as a factor variable and treatment*time (with placebo as the reference category) with an unstructured covariance structure for repeated measures. For other secondary efficacy endpoints, the Time factor corresponded to the scheduled study visits when the assessment was obtained (Visit 3, Visit 4, and Visit 5). Data from all post-baseline visits were used to fit the model.
# In the first 2 weeks of treatment, patients were blindly force-titrated to their assigned target dose, with the patients in the active arms reaching a dose of 90 mg BID (NAL 90) and, for those in the high dose group, to 180 mg BID (NAL 180) in the second week. […]
compound,measurement,setting,value
"Oc1ccc2c3c1OC1[C@@H](O)CC[C@@]4(O)[C@@H](C2)N(CC2CCC2)CC[C@]314 (stereo partly drawn) [Nalbuphine, 17-(cyclobutylmethyl)-4,5α-epoxymorphinian-3, 6α, 14-triol, hydrochloride]",Mean (SD) decrease in ItchyQoL total score from baseline to Week 10,90 mg BID,−7.79 (7.83)
same,"ItchyQoL total score, LS mean difference versus placebo (mixed model repeated measures)","180 mg BID, Week 10, p=0.022",−8.75
same,Mean (SD) decrease in ItchyQoL total score from baseline to Week 10,180 mg BID,−13.83 (13.45)
